From patent publication US10934272B2, “Pyridyl derivatives as bromodomain inhibitors” (GlaxoSmithKline Intellectual Property (No. 2) Limited, priority 2016, dated 2021)

Legend:
[1] = test system: BET family (BRD2, BRD3, BRD4 and BRDT) tandem bromodomain proteins, Tyrosine to Alanine mutants; test: Fluorescence Polarisation binding of Reference Compound X to single and double mutant tandem BET proteins; set-up: species or system Human
Experimental: The competition of the compounds of formula (I) with Reference Compound X for binding to the BET family (BRD2, BRD3, BRD4 and BRDT) was assessed using protein truncates spanning both bromodomain 1 (BD1) and bromodomain 2 (BD2). In order to monitor differential binding to either BD1 or BD2, single residue mutations of key tyrosines to alanine were made in the acetyl lysine binding pockets. To validate this approach, a double residue mutant tandem domain protein was produced for each of the BET family members. Utilising a Fluorescence Polarisation approach, binding affinities for each of the single and double mutants for Reference Compound X were determined. […] The affinities of the single mutated bromodomain tandem proteins for Reference Compound X were equi-potent with the corresponding non-mutated BET protein. […] Final purification was completed by Superdex 200 prep grade size exclusion column. Purified protein was stored at −80° C. in 20 mM HEPES pH 7.5 and 100 mM NaCl. Protein identity was confirmed by peptide mass fingerprinting and predicted molecular weight confirmed by mass spectrometry.

BRD4 BD2 = biological target: T1, BRD4 BD2 (Homo sapiens, UniProt O60885, Y97A); test: TR-FRET competition assay, BRD4 BD2 (single mutant tandem bromodomain protein); type: binding; settings: for IC50: read-out: pIC50 in the BRD4 BD2 assay (converted); for selectivity for BRD4 BD2 over BRD4 BD1: Selectivity = BRD4 BD2 pIC50 - BRD4 BD1 pIC50, in at least one of the TR-FRET assays; for fold selective for BRD4 BD2 over BRD4 BD1: from the pIC50 difference BRD4 BD2 - BRD4 BD1
T1 construct: BRD4 (1-477) (Y97A) and (Y390A); made in house; host or cells: E. coli (pET15b vector)
Experimental: Time Resolved Fluorescence Resonance Energy Transfer (TR-FRET) Assay
Bromodomain binding was assessed utilising a time resolved fluorescent resonance energy transfer (TR-FRET) competition assay. To enable this approach a known, high affinity, pan-BET interacting small molecule was labelled with Alexa Fluor® 647, which is a far-red-fluorescent dye (Reference Compound X). Reference Compound X acts as a reporter of bromodomain binding and is the acceptor fluorophore component of the TR-FRET pair. Europium chelate, conjugated to an anti-6*His antibody, was utilised as the donor fluorophore in the TR-FRET pair. […] A TR-FRET signal is generated when the donor and acceptor fluorophores are in close proximity, between 20-80 Å, which is enabled in this assay by binding of Reference Compound X to the bromodomain protein.
If the acceptor fluorophore is in close proximity then energy transfer can occur, which leads to emission of Alexa Fluor® 647 at λ665 nm. In the presence of competitor compound, Reference Compound X can be displaced from binding to the bromodomain. If displacement occurs, the acceptor fluorophore is no longer in proximity to the donor fluorophore, which prevents fluorescent energy transfer and, subsequently, a loss of Alexa Fluor® 647 emission at λ665 nm.
The competition of the compounds of formula (I) with Reference Compound X for binding to the BET family (BRD2, BRD3, BRD4 and BRDT) was assessed using protein truncates spanning both bromodomain 1 (BD1) and bromodomain 2 (BD2). In order to monitor differential binding to either BD1 or BD2, single residue mutations of key tyrosines to alanine were made in the acetyl lysine binding pockets. To validate this approach, a double residue mutant tandem domain protein was produced for each of the BET family members. Utilising a Fluorescence Polarisation approach, binding affinities for each of the single and double mutants for Reference Compound X were determined. […] Final purification was completed by Superdex 200 prep grade size exclusion column. Purified protein was stored at −80° C. in 20 mM HEPES pH 7.5 and 100 mM NaCl.
Protocol for Bromodomain BRD2, 3, 4 and T, BD1+BD2 mutant TR-FRET competition assays:
All assay components were dissolved in an assay buffer composing of 50 mM HEPES pH7.4, 50 mM NaCl, 5% Glycerol, 1 mM DTT and 1 mM CHAPS. […] The solution containing bromodomain and Reference Compound X was added to dose response dilutions of test compound or DMSO vehicle (a maximum of 0.5% DMSO is used in this assay) in Greiner 384 well black low volume microtitre plates and subsequently incubated for 30 minutes at room temperature. An equal volume of 3 nM of anti-6*His Europium chelate was added to all wells, followed by a further 30 minute incubation at room temperature. TR-FRET was detected using a Perkin Elmer Multimode plate reader, by exciting the donor fluorophore at A337 nm and subsequently, after a delay of 50 μsecs, measuring emission of the donor and acceptor fluorophores at A615 nm and λ665 nm, respectively. In order to control these assays, 16 replicates each of uninhibited (DMSO vehicle) and inhibited (10*IC50 concentrations of Example 11 of WO 2011/054846A1) TR-FRET assays were included on every microtitre plate.
cA four parameter curve fit of the following form was then applied: y=a+((b−a)/(1+(10^x/10^c)^d)
Where ‘a’ is the minimum, ‘b’ is the Hill slope, ‘c’ is the pIC50 and ‘d’ is the maximum.

[2] = TR-FRET competition with Reference Compound X, values exemplary only

Compound | IC50 (BRD4 BD2; [2]) | further results
COc1ccc2c(c1)C(c1ccc(Cl)cc1)=N[C@@H](CC(=O)NCCCCCNC(=O)CCCCCC1(C)/C(=C/C=C/C=C/C3=[N+](CCCCS(=O)(=O)O)c4ccc(S(=O)(=O)O)cc4C3(C)C)N(CCCCS(=O)(=O)[O-])c3ccc(S(=O)(=O)O)cc31)c1nnc(C)n1-2 (stereo partly drawn) [Reference Compound X] |  | reduction in Kd (affinity) of double mutant tandem proteins in comparison to non mutated, wild type tandem BET proteins ([1]; double residue mutant tandem domain protein, each BET family member): > 1000 fold; reduction of the Kd of the interaction between the mutated bromodomain and Reference Compound X ([1]; single mutations of Tyrosine to Alanine): > 1000 fold
CNC(=O)c1cc(C(=O)N[C@H]2[C@@H]3COC[C@@H]32)cc(C(CF)c2ccccc2)n1 (mixture of isomers) [Example 164, (+/−)-N^4-((1R,5S,6r)-3-Oxabicyclo[3.1.0]hexan-6-yl)-6-(2-fluoro-1-phenylethyl)-N^2-methylpyridine-2,4-dicarboxamide] | 1000 to 10000 nM | 
CNC(=O)c1cc(C(=O)NCC2CCOCC2)cc(Cc2ccccc2)n1 [Example 87, 6-Benzyl-N^2-methyl-N^4-((tetrahydro-2H-pyran-4-yl)methyl)pyridine-2,4-dicarboxamide] | 1000 to 10000 nM | 
CNC(=O)c1cc(C(=O)NCCCC2OCC(N)CO2)cc(C(OC)c2ccccc2)n1 [Example 161, N^4-(3-((2r,5S)-5-Amino-1,3-dioxan-2-yl)propyl)-6-((R*)-methoxy(phenyl)methyl)-N2-methylpyridine-2,4-dicarboxamide] |  | selectivity for BRD4 BD2 over BRD4 BD1 (BRD4 BD2): 3.2 log units; pIC50 in the BRD4 BD2 assay (BRD4 BD2; [2]): 7.6 log10 units; fold selective for BRD4 BD2 over BRD4 BD1 (BRD4 BD2): at least 1000 fold
CNC(=O)c1cc(C(=O)NCC2CCCO2)cc(Cc2ccccc2)n1 (racemic) [Example 84, (+/−)-6-Benzyl-N^2-methyl-N^4-((tetrahydrofuran-2-yl)methyl)pyridine-2,4-dicarboxamide] | 1000 to 10000 nM | 
CNC(=O)c1cc(C(=O)NCC2CCCCO2)cc(Cc2ccccc2)n1 (racemic) [Example 85, (+/−)-6-Benzyl-N^2-methyl-N^4-((tetrahydro-2H-pyran-2-yl)methyl)pyridine-2,4-dicarboxamide] | 1000 to 10000 nM | 
CNC(=O)c1cc(C(=O)N[C@H]2[C@@H]3COC[C@@H]32)cc([C@H](CF)c2ccccc2)n1 (single isomer, unassigned) [Example 166, N^4-((1R,5S,6r)-3-Oxabicyclo[3.1.0]hexan-6-yl)-6-((R*)-2-fluoro-1-phenylethyl)-N^2-methylpyridine-2,4-dicarboxamide] | 1000 to 10000 nM | 
CNC(=O)c1cc(C(=O)NCC[C@H]2CNCCO2)cc(C(C)c2ccccc2)n1 (single isomer, unassigned) [Example 41, N^2-Methyl-N^4-(2-((S)-morpholin-2-yl)ethyl)-6-((S*)-1-phenylethyl)pyridine-2,4-dicarboxamide] | 39.8 nM | selectivity for BRD4 BD2 over BRD4 BD1 (BRD4 BD2): 3.0 log units; fold selective for BRD4 BD2 over BRD4 BD1 (BRD4 BD2): at least 1000 fold
CNC(=O)c1cc(C(=O)N[C@H]2[C@@H]3COC[C@@H]32)cc([C@@H](CF)c2ccccc2)n1 (single isomer, unassigned) [Example 165, N^4-((1R,5S,6r)-3-Oxabicyclo[3.1.0]hexan-6-yl)-6-((S*)-2-fluoro-1-phenylethyl)-N^2-methylpyridine-2,4-dicarboxamide] | 1000 to 10000 nM | 
CNC(=O)c1cc(C(=O)N[C@H]2[C@@H]3COC[C@@H]32)cc(Cc2cccc3c2CCN3)n1 [Example 130, N^4-((1R,5S,6r)-3-Oxabicyclo[3.1.0]hexan-6-yl)-6-(indolin-4-ylmethyl)-N^2-methylpyridine-2,4-dicarboxamide] | 50.1 nM | 
